Test results: patent US8158638B2, “Pyrazolopyrimidine derivative” (Daiichi Sankyo Company, Limited, priority 2006, dated 2012)
Counter-ions that a name gives are not always drawn. Like-named read-outs stand apart in the source and are kept apart here.

Legend:
[1] = test system: human lung cancer cell line NCI-H460; experiment: Cell growth inhibition assay (MTT), NCI-H460; assay type: cell-based; conditions: Homo sapiens, read-out: GI50 value (50% growth inhibitory concentration)
Procedure: (§1) A cell growth inhibition assay was performed using two types of cells (human breast cancer cell line SK-BR-3 and human lung cancer cell line NCI-H460).
(§2) Cells of each type were suspended in a medium and seeded into a 96-well multi-well plate at 500 cells/150 μl/well. The test compound was dissolved in DMSO, and this was diluted with medium to prepare a sample solution (DMSO concentration: 0.5% or less). On the day following the seeding, 50 μL of DMSO-containing medium to which the test compound was not added (hereinafter called DMSO diluted solution; DMSO concentration: 0.5% or less) or the sample solution was added to the cells. An MTT assay was performed immediately after and 72 hours after adding the sample solution or the DMSO diluted solution to the cells. The MTT assay was performed as follows.
(§3) 5 mg/mL of an MTT (3-(4,5-dimethylthiazol-2-yl)-2,5-diphenyltetrazolium bromide) solution was added at 20 μL per well. Thereafter, the plate was incubated at 37° C. in 5% CO2 for four hours. The plate was centrifuged at 1200 rpm for five minutes, and then the culture supernatant was removed by suction using a dispenser. DMSO was added at 150 μL per well, and the generated formazan was dissolved. The plate was stirred using a plate mixer to uniformly color the respective wells. The absorbance of each well was measured using a plate reader at an OD of 540 nm with a reference of 660 nm.
(§4) T/C (%) for each concentration was determined by the following calculation formula and a dose-response curve was drawn to calculate the 50% growth inhibitory concentration (GI50 value), based on the assumption that the OD value measured immediately after adding the sample solution was S, the OD value measured 72 hours after adding the sample solution was T, and the OD value measured 72 hours after adding the DMSO diluted solution was C. T/C(%)=(T−S)/(C−S)×100

[2] = test system: human breast cancer cell line SK-BR-3; experiment: Cell growth inhibition assay (MTT), SK-BR-3; assay type: cell-based; conditions: Homo sapiens, read-out: GI50 value (50% growth inhibitory concentration)
Procedure: as §1, §2, §3, §4

[3] = target: T1, recombinant yeast Hsp90 protein (rHsp90) (Saccharomyces cerevisiae, UniProt P02829); experiment: Hsp90 ATPase assay; assay type: biochemical; conditions: rHsp90 100 μg/mL, ATP 100 μM, 37° C., two hours, BIOMOL GREEN; read-out: IC50 value (concentration for 50% inhibition of ATP activity)
T1 construct: made in house; host or cells: Escherichia coli
T1 sequence (P02829 whole entry): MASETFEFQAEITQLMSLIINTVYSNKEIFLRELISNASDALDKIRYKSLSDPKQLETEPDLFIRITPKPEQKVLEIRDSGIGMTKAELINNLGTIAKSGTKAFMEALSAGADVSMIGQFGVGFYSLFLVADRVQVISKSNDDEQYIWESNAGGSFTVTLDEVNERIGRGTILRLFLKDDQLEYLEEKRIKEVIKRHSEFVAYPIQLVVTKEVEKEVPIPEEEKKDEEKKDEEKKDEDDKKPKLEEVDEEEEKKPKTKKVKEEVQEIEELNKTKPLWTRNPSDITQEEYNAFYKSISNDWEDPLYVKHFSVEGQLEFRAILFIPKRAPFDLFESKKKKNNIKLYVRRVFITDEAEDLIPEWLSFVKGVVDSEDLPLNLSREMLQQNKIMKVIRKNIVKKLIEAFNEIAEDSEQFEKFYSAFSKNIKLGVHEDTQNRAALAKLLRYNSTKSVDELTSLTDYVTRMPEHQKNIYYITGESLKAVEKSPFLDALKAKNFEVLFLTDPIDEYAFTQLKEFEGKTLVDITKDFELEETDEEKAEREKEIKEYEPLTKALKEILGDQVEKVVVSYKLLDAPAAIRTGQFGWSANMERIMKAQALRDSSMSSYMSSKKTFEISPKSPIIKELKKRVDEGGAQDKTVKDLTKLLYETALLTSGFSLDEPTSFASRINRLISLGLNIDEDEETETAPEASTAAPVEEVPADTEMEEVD
Procedure: An Hsp90 ATPase assay was performed using a recombinant yeast Hsp90 protein (hereinafter called rHsp90). Yeast Hsp90 DNA was cloned from a yeast genomic DNA library according to a conventional method. The cloned yeast Hsp90 DNA was incorporated into a plasmid for expression in Escherichia coli, and the plasmid was expressed in Escherichia coli to obtain rHsp90.
The test compound was dissolved in DMSO to 10 mM. The dissolved solution was diluted with DMSO to eight concentrations ranging in three-fold dilutions from 4 mM. Each diluted solution was further 10-fold diluted with an assay buffer (100 mM Tris, pH 7.4, 20 mM KCl, 6 mM MgCl2) (concentration of each test compound solution: 400 μM, 133 μM, 44.4 μM, 14.8 μM, 4.94 μM, 1.65 μM, 0.549 μM, 0.183 μM; DMSO concentration: 10%).
rHsp90 was dissolved in a TE buffer (20 mM Tris, pH 7.4, 1 mM EDTA) to a concentration of 2.531 mg/mL. The dissolved solution was diluted with assay buffer to 125 μg/mL and dispensed to a 96-well assay plate at 40 μL per well (final concentration: 100 μg/mL).
The test compound solution was dispensed at 5 μL per well, and then the solutions in the respective wells were mixed using a plate mixer. 100 mM ATP (Sigma, Catalog No. A-7699) was diluted with assay buffer to 1 mM and dispensed at 5 μL per well (final concentration: 100 μM). The solutions in the respective wells were mixed using a plate mixer, and then the assay plate was allowed to stand in an incubator set at 37° C. for two hours.
BIOMOL GREEN Reagent (BIOMOL, Catalog No. AK-111) was dispensed at 100 μL per well, and the reaction was terminated. The solutions in the respective wells were mixed by pipetting (three times), and then 34% sodium citrate was dispensed at 10 μL per well. The solutions in the respective wells were mixed by pipetting (three times), and then the assay plate was left to stand at room temperature for 10 minutes. The absorbance at 630 nm of each well was measured with a microplate reader.
The ratio of the absorbance of the test compound-added group to the absorbance of the test compound-free group (T/C value) was determined by the following calculation formula, based on the assumption that the absorbance of the well to which the test compound and rHsp90 were added was A, the absorbance of the well to which only rHsp90 was added was B, and the absorbance of the well to which neither the test compound nor rHsp90 was added was C. T/C=(A−C)/(B−C)
Further, the concentration for 50% inhibition of ATP activity (IC50 value) was calculated using GraphPad Prism 4 (GraphPad Software, Inc.).

Row | SMILES | GI50 ([1]; NCI-H460, MTT assay, 72 hours) | GI50 ([2]; SK-BR-3, MTT assay, 72 hours) | IC50 [3] | GI50 ([1]; NCI-H460, 72 h) | GI50 ([2]; SK-BR-3, 72 h)
1 | COc1c(C)cnc(Cn2nc3c4c(nc(N)nc42)SCC3)c1C [Example 2, 2-[(4-Methoxy-3,5-dimethylpyridin-2-yl)methyl]-7,8-dihydro-2H-6-thia-1,2,3,5-tetraazaacenaphthylen-4-amine] | 224 nM | 148 nM | 1000 nM | – | –
2 | COc1c(C)cnc(Cn2nc3c4c(nc(N)nc42)SC(C#N)C3)c1C (centres unmarked) [Example 4, 4-Amino-2-[(4-methoxy-3,5-dimethylpyridin-2-yl)methyl]-7,8-dihydro-2H-6-thia-1,2,3,5-tetraazaacenaphthylene-7-carbonitrile] | 69 nM | 44 nM | 870 nM | – | –
3 | CNC(=O)C1Cc2nn(Cc3ncc(C)c(OC)c3C)c3nc(N)nc(c23)S1 (centres unmarked) [Example 9, 4-Amino-2-[(4-methoxy-3,5-dimethylpyridin-2-yl)methyl]-N-methyl-7,8-dihydro-2H-6-thia-1,2,3,5-tetraazaacenaphthylene-7-carboxamide] | 159 nM | 137 nM | 1200 nM | – | –
4 | COc1c(C)cnc(Cn2nc3c4c(nc(N)nc42)SC(C(=O)NC2CC2)C3)c1C (centres unmarked) [Example 12, 4-Amino-N-cyclopropyl-2-[(4-methoxy-3,5-dimethylpyridin-2-yl)methyl]-7,8-dihydro-2H-6-thia-1,2,3,5-tetraazaacenaphthylene-7-carboxamide] | 460 nM | 150 nM | 2200 nM | – | –
5 | COc1c(C)cnc(Cn2nc3c4c(nc(N)nc42)SCC=C3)c1C [Example 36, 2-[(4-Methoxy-3,5-dimethylpyridin-2-yl)methyl]-2,7-dihydro-6-thia-1,2,3,5-tetraazabenzo[cd]azulen-4-amine] | 86 nM | 52 nM | 970 nM | – | –
6 | CNC(=O)OC1CSc2nc(N)nc3c2c(nn3Cc2ncc(C)c(OC)c2C)C1 (centres unmarked) [Example 37, 4-Amino-2-[(4-methoxy-3,5-dimethylpyridin-2-yl)methyl]-2,7,8,9-tetrahydro-6-thia-1,2,3,5-tetraazabenzo[cd]azulen-8-yl methylcarbamate] | 411 nM | 307 nM | 3300 nM | – | –
7 | COc1c(C)cnc(Cn2nc3c4c(nc(N)nc42)SCC(NC(C)=O)C3)c1C (centres unmarked) [Example 43, N-{4-Amino-2-[(4-methoxy-3,5-dimethylpyridin-2-yl)methyl]-2,7,8,9-tetrahydro-6-thia-1,2,3,5-tetraazabenzo[cd]azulen-8-yl}acetamide] | 253 nM | 91 nM | 1400 nM | – | –
8 | COc1c(C)cnc(Cn2nc3c4c(nc(N)nc42)SCC(NC2CC2)C3)c1C (centres unmarked) [Example 51, N^8-Cyclopropyl-2-[(4-methoxy-3,5-dimethylpyridin-2-yl)methyl]-2,7,8,9-tetrahydro-6-thia-1,2,3,5-tetraazabenzo[cd]azulene-4,8-diamine hydrochloride] | 150 nM | 58 nM | 2400 nM | – | –
9 | COc1c(C)cnc(Cn2nc3c4c(nc(N)nc42)SCC(N2CCC[C@H]2C(N)=O)C3)c1C (stereo partly drawn) [Example 67, 1-{4-Amino-2-[(4-methoxy-3,5-dimethylpyridin-2-yl)methyl]-2,7,8,9-tetrahydro-6-thia-1,2,3,5-tetraazabenzo[cd]azulen-8-yl}-L-prolinamide] | 300 nM | 130 nM | 1200 nM | – | –
10 | COc1c(C)cnc(Cn2nc3c4c(nc(N)nc42)SCC(N(C)C(C)=O)C3)c1C (centres unmarked) [Example 99, N-{4-Amino-2-[(4-methoxy-3,5-dimethylpyridin-2-yl)methyl]-2,7,8,9-tetrahydro-6-thia-1,2,3,5-tetraazabenzo[cd]azulen-8-yl}-N-methylacetamide] | 650 nM | 320 nM | 820 nM | – | –
11 | COc1c(C)cnc(Cn2nc3c4c(nc(N)nc42)SCC(CCO)=C3)c1C [Example 111, 2-{4-Amino-2-[(4-methoxy-3,5-dimethylpyridin-2-yl)methyl]-2,7-dihydro-6-thia-1,2,3,5-tetraazabenzo[cd]azulen-8-yl}ethanol] | – | – | 810 nM | 94 nM | 49 nM
12 | COc1c(C)cnc(Cn2nc3c4c(nc(N)nc42)SCC(CC(N)=O)=C3)c1C [Example 115, 2-{4-Amino-2-[(4-methoxy-3,5-dimethylpyridin-2-yl)methyl]-2,7-dihydro-6-thia-1,2,3,5-tetraazabenzo[cd]azulen-8-yl}acetamide] | 194 nM | 77 nM | 740 nM | – | –
13 | CNC(=O)CC1=Cc2nn(Cc3ncc(C)c(OC)c3C)c3nc(N)nc(c23)SC1 [Example 116, 2-{4-Amino-2-[(4-methoxy-3,5-dimethylpyridin-2-yl)methyl]-2,7-dihydro-6-thia-1,2,3,5-tetraazabenzo[cd]azulen-8-yl}-N-methylacetamide] | 89 nM | 37 nM | 1100 nM | – | –
14 | CCNC(=O)CC1=Cc2nn(Cc3ncc(C)c(OC)c3C)c3nc(N)nc(c23)SC1 [Example 118, 2-{4-Amino-2-[(4-methoxy-3,5-dimethylpyridin-2-yl)methyl]-2,7-dihydro-6-thia-1,2,3,5-tetraazabenzo[cd]azulen-8-yl}-N-ethylacetamide] | – | – | 610 nM | 510 nM | 33 nM
15 | Nc1nc2c3c(nn(Cc4cc5c(cn4)OCCO5)c3n1)CCS2 [Example 172, 2-(2,3-Dihydro[1,4]dioxino[2,3-c]pyridin-7-ylmethyl)-7,8-dihydro-2H-6-thia-1,2,3,5-tetraazaacenaphthylen-4-amine] | – | – | 1500 nM | – | –
16 | Nc1nc2c3c(nn(Cc4nc5cccc(Cl)c5s4)c3n1)CCS2 [Example 174, 2-[(7-Chloro-1,3-benzothiazol-2-yl)methyl]-7,8-dihydro-2H-6-thia-1,2,3,5-tetraazaacenaphthylen-4-amine] | – | – | 3400 nM | – | –
17 | Cc1cnc(Cn2nc3c4c(nc(N)nc42)SCC3)c(C)c1Cl [Example 175, 2-[(4-Chloro-3,5-dimethylpyridin-2-yl)methyl]-7,8-dihydro-2H-6-thia-1,2,3,5-tetraazaacenaphthylen-4-amine] | – | – | 1200 nM | – | –
18 | CCc1c(C)cnc(Cn2nc3c4c(nc(N)nc42)SCC3)c1C [Example 176, 2-[(4-Ethyl-3,5-dimethylpyridin-2-yl)methyl]-7,8-dihydro-2H-6-thia-1,2,3,5-tetraazaacenaphthylen-4-amine] | – | – | 890 nM | – | –
19 | COc1c(C)cnc(Cn2nc3c4c(nc(N)nc42)SCC(CO)=C3)c1C [Example 214, {4-Amino-2-[(4-methoxy-3,5-dimethylpyridin-2-yl)methyl]-2,7-dihydro-6-thia-1,2,3,5-tetraazabenzo[cd]azulen-8-yl}methanol] | – | – | 760 nM | – | –
